Test results as given in PMC12516379, “Rotamer-Controlled Self-Immolative Linkers Enable Tunable Release of Neurosteroid Oxime Prodrugs” (ACS Medicinal Chemistry Letters, 2025).
Like-named read-outs stand apart in the source and are kept apart here.

Assays:
[1] = Stability in PBS at room temperature via HPLC (UV); format: physicochemical; conditions: phosphate-buffered saline (DPBS)
Procedure, shortened: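 Progesterone prodrugs dissolved at 1 mg/mL in PBS (pH 7.03) or 10 mM acetate buffer (pH 5.0), kept at RT and reinjected over time, HPLC-UV AUC at 254 nm. Percent parent remaining; k from ln(%remaining) vs time, pseudo-first-order t1/2 = 0.693/k; duplicates averaged.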

[2] = PBS stability assay at 37 °C via LC-MS/MS; format: physicochemical; conditions: 37 °C; for half-life at 3 µM: pH 7.03, PBS
[3] = Aqueous solubility by visual inspection in acetate buffer (pH 5); conditions: sodium acetate buffer, pH 5, aqueous buffer, thermodynamic from solid
Protocol: For the solubility assessment, acetate buffer (pH 5) was selected as the media of choice to ensure prodrug stability during analysis.
High aqueous solubility was determined by visual inspection of 5 mg solid material in 0.5 mL
sodium acetate buffer solution. This media was selected to ensure stability of prodrugs during
dissolution in 50 mg/mL aqueous media.

[4] = Plasma stability assay via LC-MS/MS, mouse plasma; format: in vitro ADME; conditions: read-out: t1/2 in mouse plasma (Table S20) (converted)
Protocol: (§1) Building on our observation that rotamer control in the steric series can be modulated by enzymatic stabilization or activation, we next evaluated whether this effect was species dependent. To investigate this, we performed comparative stability studies by incubating select prodrugs (20a, 20b, 20l and 20t; Figure ) in mouse and rat plasma – two of the most commonly used preclinical species in drug development. This approach allowed us to assess the potential influence of species-specific enzymes on rotamer equilibria and, by extension, prodrug activation rates. The self-immolation profiles for the sterically tuned linker series (20a–b) reveal discernible, species-dependent differences prodrug stability. […] While the precise biochemical drivers remain unclear, this observation warrants further investigation beyond the scope of this work.
(§2) 1.2 Stability in Plasma and PBS via LCMS
(§3) Procaine (positive control) was purchased from Sigma-Aldrich. HPLC grade MeCN, MeOH, H2O, and FA were purchased from Fischer Scientific. Human plasma (cat. No. […]- […]
(§4) 0102242) were obtained from BIOIVT. DPBS 1X (no calcium, no magnesium, pH = 7.03) was purchased from Thermo Fischer Scientific. Stock solutions were prepared in 100% DMSO, and suitable dilutions of target analytes were prepared in 0.1% FA /MeCN for method development.
(§5) For PBS assay Gibco® Dulbecco’s phosphate-buffered saline (DPBS 1X, no calcium, no magnesium, pH = 7.03) was utilized. All experiments were performed in duplicate and results are presented as the average of two experimental replicates.
(§6) Procedure for Plasma Stability Assay
(§7) Test compounds and positive control (i.e. procaine) were dissolved in DMSO to make a 10 mM stock solution and subsequently diluted to 500 μM in 50% MeCN and PBS. This intermediate stock solution was prepared and added immediately prior to the start of each test compound experiment. Plasma was thawed at ambient temperature and aliquoted (663.0 μL) into 1.5 mL Eppendorf tubes. Plasma was incubated at 37 °C for 10 minutes in an incubator shaker at 150 rpm, and the reactions were initiated by addition of the test compound or positive control (4.0 µL, 3 μM). The spiked plasma samples were incubated at 37 °C. For designated time points, 75 µL aliquots were removed from the incubation mixture and immediately quenched in 150 µL of MeCN/0.1%FA with internal standard (ISTD, 2 µM d 5-7-ethoxy coumarin). […] The supernatant was transferred to an LC-MS vial and analyzed by LC/MS-MS. […]
(§8) LC–MS/MS analysis was performed using an Agilent 1260 Infinity II HPLC, coupled with an Agilent G6460 triple quadrupole mass spectrometer (Agilent Technologies, USA). All the data were acquired employing Agilent 6460 Quantitative Analysis data processing software. […]

[5] = Plasma stability assay via LC-MS/MS, rat plasma; format: in vitro ADME; conditions: read-out: t1/2 in rat plasma (Table S19) (converted)
Protocol: as §1, §2, §3, §4, §5, §6, §7, §8

[6] = Plasma stability assay at 37 °C via LC-MS/MS, human plasma; format: in vitro ADME; conditions: for half-life at 3 µM: human, plasma;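 for all read-outs here: prodrugs at 3 µM incubated in human plasma at 37 °C, intact prodrug quantified by LC-MS/MS over time, values are means of duplicate runs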

Q: For `CNCCN(C)C(=O)O/N=C(\C)[C@H]1CC[C@H]2[C@@H]3CCC4=CC(=O)CC[C@]4(C)[C@H]3CC[C@]12C` [20a], which half-life at 1 mg/mL ([1]; pH 7.03, DPBS pH 7.03, RT, 1 mg/mL, HPLC 254 nm, read-out: t1/2 in PBS buffer at RT (Tables S1-S4) (converted)) is on record?
A: The half-life at 1 mg/mL was 46.9 ± 0.77 h.

Q: What about the half-life at 1 mg/mL ([1]; pH 7.03, PBS, rt, HPLC (UV), read-out: Half-life (t½) PBS rt (converted)) of the same compound?
A: Its half-life at 1 mg/mL is 46.9 h.

Q: What about the half-life at 1 mg/mL ([1]; pH 7.03, PBS, rt, read-out: t½: PBS, rt (Table S23) (converted)) of the same compound?
A: Its half-life at 1 mg/mL is 46.9 h.

Q: And the “PBS, 37 °C %rem. at 2h (Table S23)” value ([2]; PBS, 2 h)?
A: Its value is 77%.

Q: What about the half-life at 3 µM ([2]; phosphate-buffered saline (DPBS), 3 µM, LC-MS/MS, read-out: t1/2 in PBS at 37 °C (Tables S14-S17) (converted)) of the same compound?
A: Its half-life at 3 µM is 8.07 h.

Q: And the half-life at 3 µM ([2]; phosphate-buffered saline (DPBS), LC-MS/MS, read-out: Half-life (t½) PBS 37°C (converted))?
A: Its half-life at 3 µM is 8.07 h.

Q: And the half-life at 3 µM ([2]; phosphate-buffered saline (DPBS), read-out: PBS, 37 °C t½ (Table S23) (converted))?
A: Its half-life at 3 µM is 8.07 h.

Q: And the half-life at 3 µM ([2]; phosphate-buffered saline (DPBS), read-out: t1/2 (h) PBS, 37 °C (Tables S25, S26) (converted))?
A: Its half-life at 3 µM is 8.07 h.

Q: What about the remaining at 2 h, 3 µM ([2]; phosphate-buffered saline (DPBS), pH 7.03, PBS, 2 h, read-out: % Remaining @ 2h, PBS, 37 °C (Tables S25, S26)) of the same compound?
A: Its remaining at 2 h, 3 µM is 77%.

Q: What about the solubility [3] of the same compound?
A: Its solubility is over 10000 µg/mL.

Q: What about the half-life at 3 µM [4] of the same compound?
A: Its half-life at 3 µM is 4.7 h.

Q: And the half-life at 3 µM [5]?
A: The half-life at 3 µM was 3.88 h.

Q: What about the “t1/2 in human plasma at 37 °C (Tables S10-S13, S18)” value ([6]; 3 µM, LC-MS/MS) of the same compound?
A: Its value is 2.45 h.

Q: What about the “Plasma, 37 °C %rem. at 2h (Table S23)” value ([6]; 2 h) of the same compound?
A: The value was 73%.

Q: And the half-life at 3 µM ([6]; 3 µM, LC-MS/MS, read-out: t1/2 in human plasma at 37 °C (Tables S10-S13, S18) (converted))?
A: Its half-life at 3 µM is 3.14 h.

Q: And the half-life at 3 µM ([6]; LC-MS/MS, read-out: Half-life (t½) Plasma 37°C (converted))?
A: Its half-life at 3 µM is 2.49 h.

Q: What about the half-life at 3 µM ([6]; read-out: Plasma, 37 °C t½ (Table S23) (converted)) of the same compound?
A: Its half-life at 3 µM is 2.45 h.
